The source of these data is US8765755B2, “N-containing heterocyclic compounds” (YM Biosciences Australia Pty Ltd, priority 2007, dated 2014).

As a reminder, the IC50 is the concentration needed to halve the response being measured. A higher IC50 goes with a need for much substance.

Test [1] has as its target T1, human JAK1 (Homo sapiens, UniProt P23458).
T1 construct: The kinase domain of human JAK1 was amplified; GST (N); made in house; host or cells: Sf9 (Spodoptera frugiperda) insect cells, baculovirus
Briefly: JAK1 kinase enzyme assay (Alphascreen). It counts as biochemical. The following applies: 80 or 625 um ATP. The procedure: For screening purposes, compounds (in 100% DMSO) were warmed at 37 degrees for at least 20 minutes before use. A […] stock was initially made in assay buffer, where the final concentration of DMSO was 0.3%. The stocks were then diluted in 384 well Optiplates (Packard) where the final concentration of the compound was 5 μM.
The kinase domain of human JAK1 was amplified from U937mRNA using the polymerase chain reaction with the following primers: […]
The JAK1 PCR products were cloned into the pDest20 destination vector (Gibco). The JAK1 plasmid was then transformed into competent DH10Bac cells (Gibco), and the recombinant baculovirus was prepared via Sf9 insect cell transfection.
Baculovirus preparations from each of the JAK family members were infected into one litre of Sf9 (Spodoptera frugiperda) cells (Invitrogen) grown in SF900II serum free medium (Invitrogen) to a cell density of approximately 2×10^6 cells/ml. Cells were infected with virus at a cell culture to virus stock ratio of 20:1. Cells were harvested and lysed 48 hours post infection. The GST-tagged JAK kinase domains were purified by affinity chromatography on a GSH agarose column (Scientifix).
Kinase assays were performed in 384 well Optiplates (Packard) using an Alphascreen Protein Tyrosine KinaseP100 detection kit The compounds were pre-incubated with affinity purified PTK domain in the presence of phosphotyrosine assay buffer (10 mM HEPES, pH 7.5, 100 mM MgCl2, 25 mM NaCl, 200 mM sodium vanadate and 0.1% Tween 20) for 20 minutes. The compounds were then incubated with substrate in the presence of either 80 or 625 um ATP for 60 or 90 minutes. The substrate used was either susbtrate-1 with the sequence biotin-EGPWLEEEEEAYGWMDF-NH2 [SEQ. ID. NO. 13] (final concentration 111 μM) or susbtrate-2 substrate with the sequence biotin-EQEDEPEGDYFEWLEPE (final concentration 133 μM). Alphascreen phosphotyrosine acceptor beads followed by streptavidin donor beads at a concentration of 1/100 in stop buffer were added to each well under subdued light and incubated for 2-3 hours. The Alphascreen plates were read on a Packard Fusion Alpha instrument.
(In general: Alpha assays give light when donor and acceptor beads are brought close together.)

The target of test [2] is T2, human JAK2 (Homo sapiens, UniProt O60674).
T2 construct: The kinase domain of human JAK2 was amplified; GST (N); made in house; host or cells: Sf9 (Spodoptera frugiperda) insect cells, baculovirus
T2 sequence (O60674 849-1124 limits assumed): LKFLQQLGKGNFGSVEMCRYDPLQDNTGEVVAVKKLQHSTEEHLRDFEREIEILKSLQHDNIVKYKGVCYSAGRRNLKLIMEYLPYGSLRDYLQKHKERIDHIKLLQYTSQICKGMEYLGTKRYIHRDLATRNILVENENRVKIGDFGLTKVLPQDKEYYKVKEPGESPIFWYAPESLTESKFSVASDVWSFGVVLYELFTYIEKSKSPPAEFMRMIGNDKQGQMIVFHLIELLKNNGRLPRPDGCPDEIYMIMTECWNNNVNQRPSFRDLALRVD
In words: JAK2 kinase enzyme assay (Alphascreen). It counts as biochemical. The conditions noted are these: 80 or 625 um ATP. Put shortly:
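Compounds at 5 μM final were pre-incubated 20 min with Sf9-expressed GST-JAK2 kinase domain in HEPES pH 7.5 phosphotyrosine buffer, then incubated 60 or 90 min with 80 or 625 um ATP. Substrate was biotinylated peptide 1 (111 μM final) or peptide 2 (133 μM final). Phosphotyrosine was detected by AlphaScreen acceptor/streptavidin donor beads after 2–3 h.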

The target of test [3] is T3, human JAK3 (Homo sapiens, UniProt P52333).
T3 construct: The kinase domain of human JAK3 was amplified; GST (N); made in house; host or cells: Sf9 (Spodoptera frugiperda) insect cells, baculovirus
T3 sequence (P52333 822-1111 limits assumed): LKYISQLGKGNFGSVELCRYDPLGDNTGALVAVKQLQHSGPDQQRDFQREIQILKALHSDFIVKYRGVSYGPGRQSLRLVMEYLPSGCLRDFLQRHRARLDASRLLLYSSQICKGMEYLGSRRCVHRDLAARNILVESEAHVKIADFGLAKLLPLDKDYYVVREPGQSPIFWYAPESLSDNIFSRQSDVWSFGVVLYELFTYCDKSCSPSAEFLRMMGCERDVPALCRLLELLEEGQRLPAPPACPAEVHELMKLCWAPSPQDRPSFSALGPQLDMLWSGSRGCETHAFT
In words: JAK3 kinase enzyme assay (Alphascreen). It counts as biochemical. The conditions noted are these: 80 or 625 um ATP. Put shortly:
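Sf9-expressed GST-tagged human JAK3 kinase domain was pre-incubated 20 min with compound at 5 μM final in HEPES pH 7.5 buffer. Then 60 or 90 min reaction with 80 or 625 μM ATP and biotinylated peptide substrate at 111 or 133 μM. AlphaScreen phosphotyrosine acceptor and streptavidin donor beads, 2–3 h.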

In test [4] the test system is BafT_J2. Briefly: Cellular screening, BaF3 TEL:JAK2 cells (Alamar Blue). The following applies: Mus musculus, 40 hr incubation. It counts as cell-based. An outline of the steps:
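BaF3 cells expressing a TEL–JAK2 kinase-domain fusion, growth-factor independent, were exposed to compounds for 40 hr at 37° C, 5% CO2. Screening concentration was 20 μM in the dilution plate, added as 10× final. Viability read with Alamar Blue after a further 4-6 h, at 544 nm.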

The subject of test [5] is BAF3wt. In words: Cellular screening, BaF3 wild-type cells (Alamar Blue). It counts as cell-based. The following applies: Mus musculus, 40 hr incubation. An outline of the steps: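 BaF3 wild-type cells grown in DMEM with 10% FCS and 10% WEHI 3B conditioned medium, incubated with compound for 40 h at 37 °C, 5% CO2. Viability read by Alamar Blue after a further 4-6 h, at 544 nm; screening concentration 20 μM in dilution plate.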

Test [6] relates to BafT_J3. In words: Cellular screening, BaF3 TEL:JAK3 cells (Alamar Blue). It counts as cell-based. The following applies: Mus musculus, 40 hr incubation. An outline of the steps:
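Growth-factor-independent BaF3 tet-off cells express a TEL(nt 1–487)/JAK3 kinase-domain fusion and are grown without WEHI 3B medium. Compound plates were prepared at 20 μM and added as 10× final. After 40 h at 37 °C, 5% CO2, Alamar Blue was added for 4–6 h and read at 544 nm.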
On the technique in general: Resazurin is reduced to fluorescent resorufin, in cell work by metabolically active cells.

The subject of test [7] is CTLL2. Briefly: Cellular screening, CTLL2 cells (Alamar Blue). It counts as cell-based. The following applies: Mus musculus, CTLL-2, 40 hr incubation. Put shortly:
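CTLL2 cells in late log phase were incubated with compounds, from screening plates at 20 μM, for 40 hr at 37° C, 5% CO2. Viability was read by Alamar Blue, added for a further 4-6 hours, with the read at 544 nm.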

The structures appear in SMILES notation.

T1 sequence (P23458 875-1153 limits assumed): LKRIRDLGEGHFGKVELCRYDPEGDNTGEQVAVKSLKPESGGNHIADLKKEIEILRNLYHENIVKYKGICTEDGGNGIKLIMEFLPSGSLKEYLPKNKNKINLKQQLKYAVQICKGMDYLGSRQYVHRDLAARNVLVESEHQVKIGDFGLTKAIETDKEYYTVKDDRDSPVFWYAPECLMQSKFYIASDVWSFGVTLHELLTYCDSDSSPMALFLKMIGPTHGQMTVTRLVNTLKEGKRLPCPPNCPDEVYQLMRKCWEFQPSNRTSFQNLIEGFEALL

Turning to `NS(=O)(=O)c1ccc(-c2csc3cnc(Nc4ccc(N5CCOCC5)cc4)nc23)cc1` [Compound 11, 4-(2-(4-morpholinophenylamino)thieno[3,2-d]pyrimidin-7-yl)benzenesulfonamide], the IC50 in test [1] was < 100 nM; in test [2], < 100 nM; in test [3] it was < 100 nM; in test [4], < 1000 nM; in test [5], < 5000 nM; in test [6], < 5000 nM. For the same molecule, the IC50 in test [7] is < 1000 nM.

On to `CCNC(=O)Nc1ccc(-c2csc3cnc(Nc4ccc(N5CCOCC5)cc4)nc23)cc1OC` [Compound 13, 1-ethyl-3-(2-methoxy-4-(2-(4-morpholinophenylamino)thieno[3,2-d]pyrimidin-7-yl)phenyl)urea], for which the IC50 is < 500 nM in test [1]; < 100 nM in test [2]; < 100 nM in test [3]; < 1000 nM in test [4]; < 1000 nM in test [5]; < 5000 nM in test [6]. Besides, in test [7], the IC50 is < 5000 nM.

For `CS(=O)(=O)Nc1ccc(-c2csc3cnc(Nc4ccc(N5CCOCC5)cc4)nc23)cc1` [Compound 14, N-(4-(2-(4-morpholinophenylamino)thieno[3,2-d]pyrimidin-7-yl)phenyl)methanesulfonamide], the IC50 was < 100 nM in test [1]; < 100 nM in test [2]; < 100 nM in test [3]; < 1000 nM in test [4]; < 1000 nM in test [5]; < 1000 nM in test [6]. For the same molecule, the half-inhibitory concentration (IC50) in test [7] was < 1000 nM.

For `COc1cc(-c2csc3cnc(Nc4ccc(N5CCOCC5)cc4)nc23)ccc1O` [Compound 15, 2-methoxy-4-(2-(4-morpholinophenylamino)thieno[3,2-d]pyrimidin-7-yl)phenol], the IC50 was < 100 nM in test [1]; < 100 nM in test [2]; < 100 nM in test [3]; < 1000 nM in test [4]; > 20000 nM in test [5] (given as number); > 20000 nM in test [6] (given as number). Besides, the IC50 in test [7] (given as number) is > 20000 nM.

For the molecule `N#CCC(=O)Nc1cccc(-c2csc3cnc(Nc4ccc(N5CCOCC5)cc4)nc23)c1` [Compound 16, 2-cyano-N-(3-(2-(4-morpholinophenylamino)thieno[3,2-d]pyrimidin-7-yl)phenyl)acetamide], the IC50 in test [1] was < 100 nM; in test [2], < 100 nM; in test [3] it was < 100 nM; in test [4], < 1000 nM; in test [5], < 1000 nM; in test [6], < 1000 nM. In test [7], the half-maximal inhibitory concentration (IC50) is < 1000 nM.

In the case of `CS(=O)(=O)Nc1cccc(-c2csc3cnc(Nc4ccc(N5CCOCC5)cc4)nc23)c1` [Compound 18, N-(3-(2-(4-morpholinophenylamino)thieno[3,2-d]pyrimidin-7-yl)phenyl)methanesulfonamide], the IC50 in test [1] is < 100 nM; in test [2], < 100 nM; in test [3] it was < 100 nM; in test [4], < 1000 nM; in test [5] it was < 1000 nM; in test [6] it was < 1000 nM. Moreover, in test [7], the half-inhibitory concentration (IC50) is < 1000 nM.

On to `CS(=O)(=O)NCc1cccc(-c2csc3cnc(Nc4ccc(OCCN5CCCC5)cc4)nc23)c1` [Compound 91], for which the IC50 was < 100 nM in test [2]; < 100 nM in test [3]; < 1000 nM in test [4]; < 1000 nM in test [5]; < 1000 nM in test [6]; < 1000 nM in test [7].

As for `CC(C)(C)OC(=O)NCc1cccc(-c2csc3cnc(Nc4ccc(CN5CCOCC5)cc4)nc23)c1` [Compound 92], the IC50 in test [2] is < 100 nM; in test [3], < 500 nM; in test [4] it was < 5000 nM; in test [5], < 1000 nM; in test [6] it was < 5000 nM; in test [7], < 1000 nM.

For `c1cc(-c2csc3cnc(Nc4ccc(CN5CCOCC5)cc4)nc23)cc(N2CCNCC2)c1` [Compound 93, N-(4-(morpholinomethyl)phenyl)-7-(3-(piperazin-1-yl)phenyl)thieno[3,2-d]pyrimidin-2-amine], the IC50 is < 100 nM in test [2]; < 100 nM in test [3]; < 1000 nM in test [4]; < 1000 nM in test [5]; < 1000 nM in test [6]; < 1000 nM in test [7].

For `COc1cc(Nc2ncc3scc(-c4ccc(NCCN5CCOCC5)nc4)c3n2)cc(OC)c1OC` [Compound 94, 7-(6-(2-morpholinoethylamino)pyridin-3-yl)-N-(3,4,5-trimethoxyphenyl)thieno[3,2-d]pyrimidin-2-amine], the IC50 in test [2] was < 100 nM; in test [3], < 500 nM; in test [4] it was < 1000 nM; in test [5], < 1000 nM; in test [6] it was < 1000 nM; in test [7] it was < 1000 nM.

With `CCc1ccccc1-c1csc2cnc(Nc3ccc(OCCN4CCCC4)cc3)nc12` [Compound 95, 7-(2-ethylphenyl)-N-(4-(2-(pyrrolidin-1-yl)ethoxy)phenyl)thieno[3,2-d]pyrimidin-2-amine], the IC50 in test [2] is < 100 nM; in test [3] it was < 100 nM; in test [4], < 1000 nM; in test [5], < 1000 nM; in test [6], < 1000 nM; in test [7] it was < 1000 nM.

Turning to `CC(C)c1ccccc1-c1csc2cnc(Nc3ccc(OCCN4CCCC4)cc3)nc12` [Compound 96], the IC50 was < 100 nM in test [2]; < 100 nM in test [3]; < 1000 nM in test [4]; < 1000 nM in test [5]; < 1000 nM in test [6]; < 1000 nM in test [7].

For `NCc1ccc(-c2csc3cnc(Nc4ccc(CN5CCOCC5)cc4)nc23)cc1` [Compound 97, 7-(4-(aminomethyl)phenyl)-N-(4-(morpholinomethyl)phenyl)thieno[3,2-d]pyrimidin-2-amine], the IC50 is < 100 nM in test [2]; < 100 nM in test [3]; < 1000 nM in test [4]; < 1000 nM in test [5]; < 1000 nM in test [6]; < 1000 nM in test [7].

Consider `CCN1CCC(Oc2ccc(Nc3ncc4scc(-c5cn[nH]c5)c4n3)cc2)CC1` [Compound 98, N-(4-(1-ethylpiperidin-4-yloxy)phenyl)-7-(1H-pyrazol-4-yl)thieno[3,2-d]pyrimidin-2-amine], for which the IC50 in test [2] was < 100 nM; in test [3] it was < 100 nM; in test [4], < 1000 nM; in test [5], < 1000 nM; in test [6] it was < 1000 nM; in test [7], < 1000 nM.
